Data as given in patent US20250262251A1, “THERARONSTIC APPROACH FOR INFLAMMATORY BOWEL DISEASE-ASSOCIATED SPONDYLOARTHRITIS” (Cornell University, priority 2024, published 2025).
Each block holds one compound with its values, some of them ahead of it.

Assays:
[1] = tested on: patients with a clinical diagnosis of IBD and ASAS-defined SpA; test: Prospective clinical study of SAS therapy in IBD-pSpA subjects (BASDAI, ASDAS, HBI, CRP); assay type: in vivo, human; parameters: proportion of treated patients who tolerated increase: dose or concentration left out as unconfirmed
From the text: Eligible patients of any gender were between the ages of 18-80 with ulcerative colitis (UC) or Crohn's disease (CD) and ASAS criteria of pSpA defined as the presence of peripheral arthritis, enthesitis or dactylitis^50. Patients with active SpA, defined as ASDAS>1.3 and/or BASDAI≥4, were eligible to participate^51, 52. […] Participants who declined therapy or were intolerant of SAS were followed as standard of care controls. […] All patients provided voluntary informed consent and the study ethics was approved by the Weill Cornell institutional review board (IRB 1504016115).
The primary endpoint of our analysis was clinical response in BASDAI, defined conservatively as a reduction in BASDAI of >2. Secondary endpoints were clinical response in ASDAS and Harvey Bradshaw Index (HBI) for CD defined as reduction in ASDAS of ≥1.1 at week 12 post-study initiation^51 or a decrease in HBI of ≥3^54, respectively. Exploratory analysis included absolute reduction in BASDAI, ASDAS, CRP, and HBI.
To determine significance of […] variables, Student's t test was applied if two groups were compared, otherwise two-way ANOVA test was used. For non-parametric data, Wilcoxon matched-pairs signed-rank test was calculated when paired analyses were carried, otherwise Mann-Whitney test was applied. If required, Bonferroni or Tukey tests were applied for multiple comparison correction. Metagenomic and transcriptomic analyses were performed in R studio (Boston, MA) using R package ‘phyloseq’^66 and plots were constructed in ‘ggplot2’ or GraphPad (San Diego, CA). Differential gene expression analysis was performed with DESeq2^72. Differential taxa or pathway abundance was assessed using linear discriminant analysis (LDA) effect size (LEfSe)^31. Correlation between two continuous variables (e.g. fecal drug levels, Δ BASDAI, alpha diversity) was determined with linear regression models. For discriminating responders from non-responders, we fit linear regression models on the relative abundances of select taxa and constructed corresponding ROC curves. Area under the curve (AUC) and P values were computed using R.

[2] = tested on: fecal samples of IBD-pSpA subjects; test: Fecal metabolomics of IBD-pSpA subjects treated with SAS; assay type: in vivo, human; conditions: responders
Experimental: (§1) To determine drug fecal levels and its impact on fecal metabolites, fecal samples were treated with cold 80% methanol for 4 hours at 4° C. Samples were then centrifuged at 14,000 g for 20 min at 4° C. Supernatants were transferred to a sterile 1.5 ml tube and stored at-80° C. Bacterial supernatants were treated with 4X volume of the 80% methanol. Polar metabolomic analysis was performed by the WCM Proteomics and Metabolomics Core for target polar metabolomics analysis by LC-MS. Metabolites were identified using an in-house library established using chemical standards. Identification required exact mass (within 5ppm) and standard retention times. To determine short chain fatty acids (SCFAs) fecal levels, target metabolomics were performed using liquid chromatography-quadruple-time of flight mass spectrometry as previously described^62. Relative metabolite quantitation was performed based on peak area for each metabolite evaluated and normalized by sample weight.

[3] = tested on: Jackson SPF or germ-free C57BL/6 WT mice; test: Fecal short chain fatty acids and 5-ASA in SPF or germ-free mice treated with SAS or BSD; assay type: in vivo, mouse
Experimental: (§2) Gnotobiotic C57BL/6 wild-type (WT) mice were bred and maintained at WCM Gnotobiotic Mouse facility. Specific pathogen free (SPF) C57BL/6 WT mice were ordered from Jackson Laboratory. C57BL/6 Gpr109a^−/− mice were obtained from Marcel van den Brink laboratory and were bred and maintained under SPF conditions at WCM.
(§3) For induction of chemical colitis, 2% dextran sulfate sodium (DSS) (wt/vol) (M.W. 40,000-50,000; Affymetrix, Santa Clara, CA) was added to drinking water and administered ad libitum for 7 days. Mice were then monitored daily for weight loss and survival. Mouse Lipocalin-2 was measured in the cecal content supernatant using sandwich enzyme-linked immunosorbent assay (R&D Systems, Minneapolis, MN).
as §1

DSS-induced colitis = DSS-induced colitis in SPF WT mice; assay type: in vivo, mouse; conditions: 2% DSS 7 days, SAS 300 mg/kg/day
Experimental: as §2, §3
(§4) All animal experiments were performed with 6-8-week-old WT, Gpr109a^−/− and heterozygous littermate mice. Both female and male mice were used with random and equal assignment of same sex to each experimental group. All animal studies were carried out in accordance with protocols approved by the Institutional Animal Care and Use Committee at WCM.

[4] = tested on: butyrate receptor Gpr109a; test: DSS-induced colitis in Gpr109a-deficient and heterozygous mice; assay type: in vivo, mouse
Experimental: as §2, §3, §4

[5] = tested on: gnotobiotic mice colonized with IBD-pSpA donor microbiomes; test: Gnotobiotic mice colonized with responder or non-responder microbiomes: fecal butyrate and DSS colitis; assay type: in vivo, mouse
Experimental: as §2, §3
For gnotobiotic experiments, germ-free (GF) mice were gavaged with 1 g of homogenized patient fecal samples diluted in 10 ml of reduced PBS under anaerobic conditions, as previously described^53. Mice gavaged with ATCC 27768 F. prausnitzii received 1×10^9 colony forming units (CFU) grown under anaerobic conditions at log-phase in Yeast Casitone Fatty Acids Broth with Carbohydrate media (YCFAC, Anaerobe Systems, Morgan Hill, CA).
as §1

[6] = tested on: F. prausnitzii ATCC 27768; test: F. prausnitzii in vitro culture with sulfapyridine (growth, RNA-seq, qPCR, mass spectrometry); assay type: cell-based, Faecalibacterium prausnitzii
Experimental: as §1
(§5) CFU from F. prausnitzii cultures were assessed anaerobically in YCFA agar. Growth was measured by absorbance, OD600, on SpectraMax Plus (Molecular Devices, San Jose, CA). RNA isolation was performed using RNeasy PowerMicrobiome kit (Qiagen, Hilden, Germany) following the manufacture instructions. RNA was then quantified by Nanodrop prior to reverse transcription with qScript cDNA SuperMix kit (Quantabio, Beverly, MA) or RNAseq library preparation.
RNA-seq library preparation and sequencing were performed by WCM Genomics Core. For library preparation, the Illumina Stranded Total RNA Prep kit was used. High-throughput sequencing was performed using the PE 2×50 cycles protocol in the NovaSeq 6000 Illumina platform targeting 10 million reads/sample. Bioinformatics and statistical analysis were then performed by the WCM Bioinformatics Core. Samples were aligned with STAR^67 to NCBI reference genome GCF_000154385.1 (F. prausnitzii M21/2). Quality control was performed with QoRTs^68 on aligned BAM files. Counts per gene were then calculated using featureCounts^69. BioCyc^70 analyses were performed with clusterProfiler to identify pathways/gene sets that are overrepresented among the differentially expressed genes.
(§6) qPCR was performed on an Applied BioSciences Quant Studio 6 Flex Real-time PCR (Applied Biosystems, Waltham, MA) using PerfeCTa SYBR Green Fast mix, Low ROX (Quantabio, Beverly, MA). The following primers were used: for 16S rRNA gene −515F 5′ […] 3′ (SEQ ID NO:1), −926R 5′ […] 3′ (SEQ ID NO:2)^71 F. prausnitzii but gene F: 5′ […] 3′ SEQ ID NO:3), R: 5′ […] 3′ (SEQ ID NO:4) and E. rectale but gene F: 5′ […] 3′, SEQ ID NO:5) R: 5′ […] 3′ (SEQ ID NO:6) (designed on the PrimerQuest Tool from IDT, Coralville, IA). The thermocycler program was as follows: initial cycle of 95° C. for 60 s, followed by 40 PCR cycles at 95° C. for 5 s, 60° C. for 15 s, 72° C. for 15 s. Relative levels of the but target gene was determined by calculating the Δ Ct to the conserved 16S rRNA gene expression.

E. rectale DSM 17629 = test: E. rectale in vitro culture with sulfapyridine (but expression); assay type: cell-based, Eubacterium rectale; conditions: SP 1 mM
Experimental: as §5, §6

[7] = SPF WT mice, 300 mg/kg/day, day 14
[8] = RNA-seq, SP 1 mM vs NaOH vehicle

Compound: O=C(O)c1cc(/N=N/c2ccc(S(=O)(=O)Nc3ccccn3)cc2)ccc1O [SAS, sulfasalazine]
proportion of treated patients who tolerated increase ([1]; 22 patients treated with SAS, n=11): 50%
absolute score reduction in BASDAI compared to controls ([1]; baseline to week 12): significant absolute score reduction
difference in CRP alone compared to controls ([1]; baseline to week 12): no difference
reduction in all joint disease activity scores, 2 mg versus 4 mg daily ([1]; comparison between SAS doses): equivalent reduction
impact of baseline biologic or mesalamine therapy on change in disease activity scores following SAS treatment ([1]; human, in vivo): did not impact
proportion with clinical improvement using ASDAS ([1]; week 12, controls 0%, P=.07): 28.6%
proportion of patients achieving clinical response in joint symptoms (reduction in BASDAI of >2) ([1]; week 12, controls 9.1%, P=.04): 45.4%
thymine fecal abundance after SAS treatment ([2]; P=.016): significantly reduced
fecal deoxyuridine levels after SAS treatment ([2]; P=.05): concomitant increase
fecal butyrate levels post-treatment ([3]; GF mice): no changes
fecal acetate [3, 7]: no significant change
fecal butyrate levels compared to H2O vehicle controls [3, 7]: significant increase
fecal propionate [3, 7]: no significant change
cecal lipocalin compared to control treated mice (DSS-induced colitis): reduced
mortality compared to control treated mice (DSS-induced colitis): significantly reduced
weight loss compared to control treated mice (DSS-induced colitis): attenuated
inflammation measured by lipocalin ([4]; mice deficient for Gpr109a): no effect
survival ([4]; mice deficient for Gpr109a): no effect
weight loss ([4]; mice deficient for Gpr109a): no effect
intestinal inflammation measured by cecal lipocalin ([4]; mice heterozygous for Gpr109a): decreased intestinal inflammation
survival ([4]; mice heterozygous for Gpr109a): significantly improved
weight loss ([4]; mice heterozygous for Gpr109a): reduced weight loss
abundance of fecal butyrate following SAS treatment ([5]; mice colonized with non-responder microbiome): not changed
abundance of fecal butyrate following SAS treatment ([5]; mice colonized with responder microbiomes): higher abundance
weight loss ([5]; non-responder microbiomes, DSS): not responsive
intestinal inflammation measured by lipocalin ([5]; responder microbiomes, DSS): reduced
weight loss ([5]; responder microbiomes, DSS): reduced

conversion of prodrug by the mouse gut microbiome (5-ASA detection in fecal samples) ([3]; SPF mice, day 7 post-treatment initiation): efficiently converted
Compound: O=C(O)CCNC(=O)c1ccc(/N=N/c2ccc(O)c(C(=O)O)c2)cc1 [BSD, balsalazide]
fecal butyrate levels compared to H2O vehicle controls [3, 7]: numerically higher

acetate kinase (ackA) expression [6, 8]: downregulation
phosphate acetyltransferase (pta) expression [6, 8]: downregulation
thymidine kinase expression ([6]; bacterial cultures with SP): significant increase
Compound: Nc1ccc(S(=O)(=O)Nc2ccccn2)cc1 [SP, sulfapyridine]
effect of dose on F. prausnitzii growth ([6]; 1 mM, anaerobic culture): sub-inhibitory
folT (folate ECF transporter S component FolT) expression ([6]; RNA-seq, SP 1 mM): upregulation
but expression [6, 8]: concomitant increase
thymine metabolites ([6]; bacterial cultures with SP): corresponding decrease
butyrate production ([6]; mass spectrometry after 22 and 46 hours of culture, both timepoints): robustly increased
induction of but in response to SP on supplementation with folate ([6]; qPCR, SP plus folate 566 μM): abrogated
expression of but in E. rectale (E. rectale DSM 17629): did not change
